Experimental data published in PMC11897524 (Frontiers in Pharmacology, 2025).

Legend:
BRD4 = BRD4 (Homo sapiens, UniProt O60885); assay: AlphaScreen BRD4 binding inhibition assay; design: purchased Abcam
STAT6 = STAT6 (Homo sapiens, UniProt P42226); assay: Binding affinity to BET and STAT family members
[1] = Hematology parameters of treated mice; format: in vivo, BALB/c nude mice; conditions: BST-4-treated vs vehicle groups
Method: To further investigate the in vivo effects of BST-4, 6–8 weeks male BALB/c nude mice were obtained by Changzhou Cavens Experimental Animal Co., Ltd. (Changzhou, China). The mice were acclimatized to the laboratory environment for a week before the experiment. The housing conditions were maintained at a temperature of 22°C ± 2°C, a relative humidity of 50%–60%, and a 12-h light/dark cycle. 0.1 mL of CAKI-2cell suspension (1 × 10⁶ cells) was subcutaneously injected into the right flank of each mouse. […] The vehicle group was injected with a vehicle solution consisting of 5% DMSO and PBS. The tumor volume of mice was measured every 2 days and calculated according to the formula: (c × c × d)/2, where c and d represent the minimum diameter and maximum diameter, respectively. All animal experiments were performed and approved by the Ethics Committee of China Pharmaceutical University.
FIGURE 12 Hematology parameters of mice in the BST-4-treated groups and vehicle groups. (A) White blood cell (WBC); (B) Red blood cells (RBC); (C) Platelets (PLT); (D) Hemoglobin (HGB). Data are presented as the mean ± SD, n = 5.

STAT1 = STAT1 (Homo sapiens, UniProt P42224); assay: Binding affinity to BET and STAT family members
PBMCs = assay: MTT cytotoxicity assay; format: cell-based; conditions: PBMC, 48 h treatment, read-out: IC50 (μM) ± SD PBMCs
Method: The effect of hit compounds on cytotoxicity was determined as previously reported ([Ding et al., 2020]). In brief, cells treated with the tested compounds were added with MTT reagent to form formazan crystals, and then the optical density (OD) values at 570 nm were determined after the crystals were dissolved in DMSO. […] Next, the values of IC50 of the selected compounds against more RCC cell lines were determined. The 5 × 10^3 cells in 100 μL culture medium were injected into each well of a 96-well plate and cultured overnight. Add different concentrations of compounds and incubate for 48 h. Then 100 μL of MTT (0.5 mg/mL) solution was added to the 96-well plate and maintained at 37°C for 4 h. Finally, 200 μL of DMSO was added and shaken for 10 min. The OD values at 570 nm were determined by a Synergy 4 microplate reader.

FGR = FGR (Homo sapiens, UniProt P09769); assay: SelectScreen Z′-LYTE kinase assay; format: biochemical
Method: (§1) The kinase selectivity profile of BST-4 was performed by the SelectScreen kinase profiling service (Thermo Fisher Scientific). Kinase selectivity assay was performed using Z′-LYTE ™ screening protocol kit. Briefly, the test compounds were screened in 1% DMSO (final). For 10-point titrations, perform a 3-fold dilution starting at a starting concentration of 50 µM. Then 2.5 µL 4× test compound, 2.4 µL kinase buffer, 5 µL 2× kinase mixture and 2.5 µL 4× ATP solution was added in black 384-well plate. After shaking for 30 s, the plates were incubated for 60 min at room temperature. Add developing reagent solution and shake the plate for 30 s, then incubate for 1 h at room temperature. The Fluorescence intensity per well was read using a fluorescence plate reader. SelectScreen® Kinase Profiling Service used XLfit from IDBS. The dose response curve was curve fit to model number 205 (sigmoidal dose-response model) and inhibition rates were calculated. 50% inhibition was used as a activity threshold. IC50 values were calculated based on curve fitting.

ALK = ALK (Homo sapiens, UniProt Q9UM73); assay: SelectScreen Z′-LYTE kinase assay; format: biochemical
Method: as §1

FYN = FYN (Homo sapiens, UniProt P06241); assay: SelectScreen Z′-LYTE kinase assay; format: biochemical
Method: as §1

AXL = AXL (Homo sapiens, UniProt P30530); assay: SelectScreen Z′-LYTE kinase assay; format: biochemical
Method: as §1

FLT4 = FLT4 (Homo sapiens, UniProt P35916); assay: SelectScreen Z′-LYTE kinase assay; format: biochemical
Method: as §1

EPHA2 = EPHA2 (Homo sapiens, UniProt P29317); assay: SelectScreen Z′-LYTE kinase assay; format: biochemical
Method: as §1

FGFR1 = FGFR1 (Homo sapiens, UniProt P11362); assay: SelectScreen Z′-LYTE kinase assay; format: biochemical
Method: as §1

MERTK = MERTK (Homo sapiens, UniProt Q12866); assay: SelectScreen Z′-LYTE kinase assay; format: biochemical
Method: as §1

MET = MET (Homo sapiens, UniProt P08581); assay: SelectScreen Z′-LYTE kinase assay; format: biochemical
Method: as §1

LYN = LYN (Homo sapiens, UniProt P07948); assay: SelectScreen Z′-LYTE kinase assay; format: biochemical
Method: as §1

NTRK1 = NTRK1 (Homo sapiens, UniProt P04629); assay: SelectScreen Z′-LYTE kinase assay; format: biochemical
Method: as §1

SRMS = SRMS (Homo sapiens, UniProt Q9H3Y6); assay: SelectScreen Z′-LYTE kinase assay; format: biochemical
Method: as §1

KIT = KIT (Homo sapiens, UniProt P10721); assay: SelectScreen Z′-LYTE kinase assay; format: biochemical
Method: as §1

EPHB3 = EPHB3 (Homo sapiens, UniProt P54753); assay: SelectScreen Z′-LYTE kinase assay; format: biochemical
Method: as §1

EPHB1 = EPHB1 (Homo sapiens, UniProt P54762); assay: SelectScreen Z′-LYTE kinase assay; format: biochemical
Method: as §1

RET = RET (Homo sapiens, UniProt P07949); assay: SelectScreen Z′-LYTE kinase assay; format: biochemical
Method: as §1

JAK3 = JAK3 (Homo sapiens, UniProt P52333); assay: SelectScreen Z′-LYTE kinase assay; format: biochemical
Method: as §1

FES = FES (Homo sapiens, UniProt P07332); assay: SelectScreen Z′-LYTE kinase assay; format: biochemical
Method: as §1

Chain of MET (P08581 25-1390): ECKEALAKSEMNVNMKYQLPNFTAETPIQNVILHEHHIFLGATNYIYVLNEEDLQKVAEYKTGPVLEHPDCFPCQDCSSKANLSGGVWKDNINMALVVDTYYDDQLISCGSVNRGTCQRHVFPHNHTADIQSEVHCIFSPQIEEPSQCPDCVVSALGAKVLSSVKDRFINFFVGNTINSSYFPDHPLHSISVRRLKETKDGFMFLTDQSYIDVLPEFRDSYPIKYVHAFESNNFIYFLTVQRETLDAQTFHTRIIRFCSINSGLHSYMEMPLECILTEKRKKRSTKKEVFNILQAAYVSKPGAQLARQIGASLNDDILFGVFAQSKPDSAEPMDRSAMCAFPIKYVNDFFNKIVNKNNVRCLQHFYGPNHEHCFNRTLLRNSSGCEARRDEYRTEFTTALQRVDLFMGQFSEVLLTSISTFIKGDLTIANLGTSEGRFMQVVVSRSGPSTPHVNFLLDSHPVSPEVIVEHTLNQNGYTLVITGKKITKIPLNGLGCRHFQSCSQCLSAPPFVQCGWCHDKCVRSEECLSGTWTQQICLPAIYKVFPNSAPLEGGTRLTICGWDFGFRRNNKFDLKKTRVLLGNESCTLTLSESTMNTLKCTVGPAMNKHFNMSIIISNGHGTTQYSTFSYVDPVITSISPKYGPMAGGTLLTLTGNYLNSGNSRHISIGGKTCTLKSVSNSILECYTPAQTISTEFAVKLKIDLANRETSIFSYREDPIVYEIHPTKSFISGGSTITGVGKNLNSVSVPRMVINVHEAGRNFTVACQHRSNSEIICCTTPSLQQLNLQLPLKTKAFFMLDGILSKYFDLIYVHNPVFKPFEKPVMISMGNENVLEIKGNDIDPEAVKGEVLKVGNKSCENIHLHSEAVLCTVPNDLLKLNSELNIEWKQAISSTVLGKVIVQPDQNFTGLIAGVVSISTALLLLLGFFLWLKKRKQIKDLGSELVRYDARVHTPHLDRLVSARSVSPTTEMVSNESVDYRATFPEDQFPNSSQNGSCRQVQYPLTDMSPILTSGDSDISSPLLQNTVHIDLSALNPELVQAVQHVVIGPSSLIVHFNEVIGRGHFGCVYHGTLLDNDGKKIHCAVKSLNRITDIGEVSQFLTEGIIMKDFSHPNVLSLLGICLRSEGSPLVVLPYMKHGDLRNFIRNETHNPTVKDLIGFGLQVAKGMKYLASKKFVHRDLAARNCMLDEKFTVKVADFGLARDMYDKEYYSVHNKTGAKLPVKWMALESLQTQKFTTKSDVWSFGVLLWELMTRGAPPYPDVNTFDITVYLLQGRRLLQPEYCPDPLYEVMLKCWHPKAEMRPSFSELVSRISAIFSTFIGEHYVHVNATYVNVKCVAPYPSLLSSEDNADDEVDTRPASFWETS
Chain of AXL (P30530 26-894): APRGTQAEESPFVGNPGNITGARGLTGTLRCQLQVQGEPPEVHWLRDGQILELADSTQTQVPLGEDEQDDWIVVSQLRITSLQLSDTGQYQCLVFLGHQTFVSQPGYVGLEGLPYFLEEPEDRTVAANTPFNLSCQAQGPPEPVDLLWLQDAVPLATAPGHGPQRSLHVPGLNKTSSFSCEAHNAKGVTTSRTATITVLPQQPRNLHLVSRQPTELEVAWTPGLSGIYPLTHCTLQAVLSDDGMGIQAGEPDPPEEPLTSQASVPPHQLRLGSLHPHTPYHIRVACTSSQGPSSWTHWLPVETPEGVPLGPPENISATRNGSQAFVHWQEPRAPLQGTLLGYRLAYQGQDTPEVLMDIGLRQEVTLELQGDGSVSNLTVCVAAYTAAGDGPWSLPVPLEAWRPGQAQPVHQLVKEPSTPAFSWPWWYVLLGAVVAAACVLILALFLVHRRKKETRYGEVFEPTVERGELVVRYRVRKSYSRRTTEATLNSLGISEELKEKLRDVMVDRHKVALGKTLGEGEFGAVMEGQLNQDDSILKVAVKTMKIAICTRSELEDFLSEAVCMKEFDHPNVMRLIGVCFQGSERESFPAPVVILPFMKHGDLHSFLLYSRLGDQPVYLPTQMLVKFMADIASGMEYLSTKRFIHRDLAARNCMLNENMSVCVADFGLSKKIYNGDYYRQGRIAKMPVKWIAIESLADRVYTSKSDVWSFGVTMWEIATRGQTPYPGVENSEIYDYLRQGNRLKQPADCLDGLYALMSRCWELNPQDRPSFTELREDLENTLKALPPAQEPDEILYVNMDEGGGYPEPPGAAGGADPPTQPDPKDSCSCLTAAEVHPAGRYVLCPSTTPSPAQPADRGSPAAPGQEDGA
Chain of FYN (P06241 whole entry): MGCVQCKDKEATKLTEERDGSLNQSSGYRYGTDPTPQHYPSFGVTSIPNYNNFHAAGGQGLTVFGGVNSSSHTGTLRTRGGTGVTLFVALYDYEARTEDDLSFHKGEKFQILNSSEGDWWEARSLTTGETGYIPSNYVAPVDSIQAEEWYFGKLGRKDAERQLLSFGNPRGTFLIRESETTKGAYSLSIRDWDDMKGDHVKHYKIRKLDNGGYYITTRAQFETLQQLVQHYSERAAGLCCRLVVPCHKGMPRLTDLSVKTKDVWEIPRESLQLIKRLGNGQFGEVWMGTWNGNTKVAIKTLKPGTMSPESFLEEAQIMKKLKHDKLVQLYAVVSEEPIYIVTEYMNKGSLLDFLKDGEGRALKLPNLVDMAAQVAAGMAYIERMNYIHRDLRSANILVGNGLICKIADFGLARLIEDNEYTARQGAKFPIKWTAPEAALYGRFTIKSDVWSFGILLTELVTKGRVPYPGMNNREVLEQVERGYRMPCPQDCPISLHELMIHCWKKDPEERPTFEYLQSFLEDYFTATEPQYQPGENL
Chain of FES (P07332 whole entry): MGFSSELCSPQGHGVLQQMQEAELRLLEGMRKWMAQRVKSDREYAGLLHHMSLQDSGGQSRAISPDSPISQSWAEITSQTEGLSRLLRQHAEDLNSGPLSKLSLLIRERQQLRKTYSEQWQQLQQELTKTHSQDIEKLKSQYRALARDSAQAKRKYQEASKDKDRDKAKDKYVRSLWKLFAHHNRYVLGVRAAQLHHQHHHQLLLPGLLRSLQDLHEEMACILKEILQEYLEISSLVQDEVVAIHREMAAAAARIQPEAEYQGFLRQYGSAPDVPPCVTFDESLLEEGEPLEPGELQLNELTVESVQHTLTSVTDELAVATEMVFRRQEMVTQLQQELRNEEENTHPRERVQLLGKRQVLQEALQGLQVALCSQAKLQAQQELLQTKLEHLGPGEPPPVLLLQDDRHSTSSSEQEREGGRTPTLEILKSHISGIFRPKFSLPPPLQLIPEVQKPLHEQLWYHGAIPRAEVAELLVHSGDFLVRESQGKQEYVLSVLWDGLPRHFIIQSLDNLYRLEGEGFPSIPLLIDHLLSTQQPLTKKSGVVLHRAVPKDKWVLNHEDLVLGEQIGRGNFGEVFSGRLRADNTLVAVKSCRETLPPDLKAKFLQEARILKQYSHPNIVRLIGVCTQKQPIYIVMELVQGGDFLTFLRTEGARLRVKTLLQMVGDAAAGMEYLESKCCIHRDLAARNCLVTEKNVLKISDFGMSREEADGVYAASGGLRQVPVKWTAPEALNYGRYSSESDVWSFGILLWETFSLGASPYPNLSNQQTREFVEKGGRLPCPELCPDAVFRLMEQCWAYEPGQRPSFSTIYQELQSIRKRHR
Chain of SRMS (Q9H3Y6 whole entry): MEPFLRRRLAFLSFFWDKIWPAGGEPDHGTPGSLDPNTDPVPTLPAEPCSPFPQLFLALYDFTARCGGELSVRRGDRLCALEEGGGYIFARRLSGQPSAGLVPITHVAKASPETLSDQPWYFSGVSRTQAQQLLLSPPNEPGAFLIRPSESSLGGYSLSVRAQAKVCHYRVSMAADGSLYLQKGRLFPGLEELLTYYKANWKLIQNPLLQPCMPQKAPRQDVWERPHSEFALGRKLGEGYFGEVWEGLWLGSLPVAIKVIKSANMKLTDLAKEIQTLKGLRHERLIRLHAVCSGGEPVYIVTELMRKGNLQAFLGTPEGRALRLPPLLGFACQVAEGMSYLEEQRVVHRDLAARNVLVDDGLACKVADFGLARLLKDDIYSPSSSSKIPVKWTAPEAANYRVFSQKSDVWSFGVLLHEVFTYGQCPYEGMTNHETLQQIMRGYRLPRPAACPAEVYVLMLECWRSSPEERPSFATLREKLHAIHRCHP
Chain of EPHB3 (P54753 34-998): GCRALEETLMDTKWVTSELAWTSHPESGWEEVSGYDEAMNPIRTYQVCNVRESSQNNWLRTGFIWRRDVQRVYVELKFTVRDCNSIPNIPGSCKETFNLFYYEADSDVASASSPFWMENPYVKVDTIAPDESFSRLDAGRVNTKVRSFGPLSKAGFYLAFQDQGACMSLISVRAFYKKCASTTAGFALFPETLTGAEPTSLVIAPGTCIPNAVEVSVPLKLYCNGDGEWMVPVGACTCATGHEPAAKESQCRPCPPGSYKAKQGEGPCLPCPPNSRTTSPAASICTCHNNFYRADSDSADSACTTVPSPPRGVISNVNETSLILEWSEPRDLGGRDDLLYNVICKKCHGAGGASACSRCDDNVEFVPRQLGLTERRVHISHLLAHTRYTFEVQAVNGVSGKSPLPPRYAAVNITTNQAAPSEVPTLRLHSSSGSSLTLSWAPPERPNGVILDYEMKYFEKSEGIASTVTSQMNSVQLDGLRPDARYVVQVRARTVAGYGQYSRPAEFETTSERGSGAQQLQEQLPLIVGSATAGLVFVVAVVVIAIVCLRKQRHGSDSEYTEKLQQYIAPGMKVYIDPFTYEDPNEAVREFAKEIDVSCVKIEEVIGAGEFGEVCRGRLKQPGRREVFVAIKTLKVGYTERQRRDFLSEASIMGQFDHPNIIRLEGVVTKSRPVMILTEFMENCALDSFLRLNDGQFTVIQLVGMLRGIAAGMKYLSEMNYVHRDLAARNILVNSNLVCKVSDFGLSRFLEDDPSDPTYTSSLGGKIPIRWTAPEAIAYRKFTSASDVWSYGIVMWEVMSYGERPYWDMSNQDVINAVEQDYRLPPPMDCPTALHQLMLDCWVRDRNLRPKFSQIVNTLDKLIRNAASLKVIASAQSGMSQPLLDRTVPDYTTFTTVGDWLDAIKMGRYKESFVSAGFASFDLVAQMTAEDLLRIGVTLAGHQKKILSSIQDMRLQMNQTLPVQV

IC50 (BRD4): 0.00245 ± 0.00011 µM
BRD4 inhibition relative to RVX-208 (BRD4; IC50 ratio vs RVX-208): about 16 fold
Kd (STAT6): > 10 µM
levels of representative hematological markers (WBC, RBC, PLT, HGB) vs vehicle [1]: no significant differences
Kd (STAT1): > 10 µM
IC50 (FGR): > 10 µM
inhibition at 1 µM (FGR): 0.28%
IC50 (ALK): > 10 µM
inhibition at 1 µM (ALK): 0.72%
IC50 (FYN): > 10 µM
inhibition at 1 µM (FYN): 2.03%
IC50 (AXL): > 10 µM
inhibition at 1 µM (AXL): 1.83%
IC50 (FLT4): > 10 µM
inhibition at 1 µM (FLT4): 1.82%
IC50 (EPHA2): > 10 µM
inhibition at 1 µM (EPHA2): 0.5%
IC50 (FGFR1): > 10 µM
inhibition at 1 µM (FGFR1): 0.59%
IC50 (MERTK): > 10 µM
inhibition at 1 µM (MERTK): 0.07%
IC50 (MET): > 10 µM
inhibition at 1 µM (MET): 0.68%
IC50 (LYN): > 10 µM
inhibition at 1 µM (LYN): 1.96%
IC50 (NTRK1): > 10 µM
inhibition at 1 µM (NTRK1): 0.67%
IC50 (SRMS): > 10 µM
inhibition at 1 µM (SRMS): 0.53%
IC50 (KIT): > 10 µM
inhibition at 1 µM (KIT): 0.25%
IC50 (EPHB3): > 10 µM
inhibition at 1 µM (EPHB3): 0.98%
IC50 (EPHB1): > 10 µM
inhibition at 1 µM (EPHB1): 3.35%
IC50 (RET): > 10 µM
inhibition at 1 µM (RET): 0.41%
IC50 (JAK3): > 10 µM
inhibition at 1 µM (JAK3): 0.39%
IC50 (FES): > 10 µM
inhibition at 1 µM (FES): 0.05%
SMILES: CCS(=O)(=O)Cc1cnc(Oc2c(F)cc(F)cc2OCCCCOc2ccc(/C=C/c3cc(OC)cc(OC)c3)cc2)c(-c2cc(C)c3c(=O)[nH]ccn23)c1 [BST-4]
IC50 (PBMCs): > 10 µM
